Assay results taken from ChEMBL document CHEMBL5375992, “Design and Development of IKZF2 and CK1α Dual Degraders” (J Med Chem, 2023).
≈ marks a conversion by molar mass, not a printed value. Calls of active or inactive are those of the source. The rule behind the calls is not given here.

How the values were obtained:
OCI-Ly3 [1] = assay: Upregulation of Bax transcript level in human OCILY3 cells at 1 uM incubated for 24 hrs by RT-qPCR analysis; format: functional, cell-based
OCI-Ly3 [2] = assay: Upregulation of MDM2 protein expression in human OCILY3 cells at […] incubated for 24 hrs by Western blot analysis; format: functional, cell-based
[3] = molecular target: Cereblon/Ikaros (Homo sapiens) (UniProt Q96SW2+Q13422); assay: Protac activity at CRBN/IKZF1 (unknown origin) transfected in HEK293T cells at 100 nM incubated for 24 hrs by flow cytometry analysis relative to control; format: cell-based
[4] = molecular target: T1, Protein cereblon/Zinc finger protein Helios (Homo sapiens) (UniProt Q96SW2+Q9UKS7); assay: Protac activity at CRBN/IKZF2 (unknown origin) transfected in HEK293T cells at 100 nM incubated for 24 hrs by flow cytometry analysis relative to control; format: cell-based
[5] = molecular target: T2, Cereblon/Casein kinase I alpha (Homo sapiens) (UniProt P48729+Q96SW2); assay: Protac activity at CRBN/CK1alpha (unknown origin) transfected in HEK293T cells at 100 nM incubated for 24 hrs by flow cytometry analysis relative to control; format: cell-based
[6] = molecular target: T3, Protein cereblon/Eukaryotic peptide chain release factor GTP-binding subunit ERF3A (Homo sapiens) (UniProt Q96SW2+P15170); assay: Protac activity at CRBN/GSPT1 (unknown origin) transfected in HEK293T cells at 100 nM incubated for 24 hrs by flow cytometry analysis relative to control; format: cell-based
[7] = Solubility of compound in DMSO; format: physicochemical; settings: DMSO; read-out: solubility
[8] = molecular target: T2, Cereblon/Casein kinase I alpha (Homo sapiens); assay: Protac activity at CRBN/CK1alpha in human MOLM-13 cells at 50 nM incubated for 2 hrs by proteomic analysis; format: cell-based
A2780 [9] = assay: Cytotoxicity against human A2780 cells incubated for 5 days by MTT assay; format: functional, cell-based; settings: A2780, 120 h
OCI-Ly3 [10] = assay: Cytotoxicity against human OCILY3 cells incubated for 5 days by MTT assay; format: functional, cell-based; settings: OCI-Ly3, 120 h
[11] = molecular target: T2, Cereblon/Casein kinase I alpha (Homo sapiens); assay: Protac activity at CRBN/CK1alpha in human A2780 cells assessed as relative ratio at 1 nM incubated for 24 hrs by Western blotting analysis relative to DMSO; format: cell-based
[12] = molecular target: T2, Cereblon/Casein kinase I alpha (Homo sapiens); assay: Protac activity at CRBN/CK1alpha in human A2780 cells assessed as relative ratio at 10 nM incubated for 24 hrs by Western blotting analysis relative to DMSO; format: cell-based
[13] = molecular target: T2, Cereblon/Casein kinase I alpha (Homo sapiens); assay: Protac activity at CRBN/CK1alpha in human A2780 cells assessed as relative ratio at 100 nM incubated for 24 hrs by Western blotting analysis relative to DMSO; format: cell-based
[14] = molecular target: T2, Cereblon/Casein kinase I alpha (Homo sapiens); assay: Protac activity at CRBN/CK1alpha in human A2780 cells assessed as relative ratio at 1 uM incubated for 24 hrs by Western blotting analysis relative to DMSO; format: cell-based
[15] = molecular target: T2, Cereblon/Casein kinase I alpha (Homo sapiens); assay: Protac activity at CRBN/CK1alpha in human A2780 cells assessed as relative ratio at 10 uM incubated for 24 hrs by Western blotting analysis relative to DMSO; format: cell-based
[16] = molecular target: T3, Protein cereblon/Eukaryotic peptide chain release factor GTP-binding subunit ERF3A (Homo sapiens); assay: Protac activity at CRBN/GSPT1 in human A2780 cells assessed as relative ratio at 1 nM incubated for 24 hrs by Western blotting analysis relative to DMSO; format: cell-based
[17] = molecular target: T3, Protein cereblon/Eukaryotic peptide chain release factor GTP-binding subunit ERF3A (Homo sapiens); assay: Protac activity at CRBN/GSPT1 in human A2780 cells assessed as relative ratio at 10 nM incubated for 24 hrs by Western blotting analysis relative to DMSO; format: cell-based
[18] = molecular target: T3, Protein cereblon/Eukaryotic peptide chain release factor GTP-binding subunit ERF3A (Homo sapiens); assay: Protac activity at CRBN/GSPT1 in human A2780 cells assessed as relative ratio at 100 nM incubated for 24 hrs by Western blotting analysis relative to DMSO; format: cell-based
[19] = molecular target: T3, Protein cereblon/Eukaryotic peptide chain release factor GTP-binding subunit ERF3A (Homo sapiens); assay: Protac activity at CRBN/GSPT1 in human A2780 cells assessed as relative ratio at 1 uM incubated for 24 hrs by Western blotting analysis relative to DMSO; format: cell-based
[20] = molecular target: T3, Protein cereblon/Eukaryotic peptide chain release factor GTP-binding subunit ERF3A (Homo sapiens); assay: Protac activity at CRBN/GSPT1 in human A2780 cells assessed as relative ratio at 10 uM incubated for 24 hrs by Western blotting analysis relative to DMSO; format: cell-based
[21] = molecular target: T2, Cereblon/Casein kinase I alpha (Homo sapiens); assay: Protac activity at CRBN/CK1alpha in human OCILY3 cells assessed as relative ratio at 1 nM incubated for 24 hrs by Western blotting analysis relative to DMSO; format: cell-based
[22] = molecular target: T2, Cereblon/Casein kinase I alpha (Homo sapiens); assay: Protac activity at CRBN/CK1alpha in human OCILY3 cells assessed as relative ratio at 10 nM incubated for 24 hrs by Western blotting analysis relative to DMSO; format: cell-based
[23] = molecular target: T2, Cereblon/Casein kinase I alpha (Homo sapiens); assay: Protac activity at CRBN/CK1alpha in human OCILY3 cells assessed as relative ratio at 100 nM incubated for 24 hrs by Western blotting analysis relative to DMSO; format: cell-based
[24] = molecular target: T2, Cereblon/Casein kinase I alpha (Homo sapiens); assay: Protac activity at CRBN/CK1alpha in human OCILY3 cells assessed as relative ratio at 1 uM incubated for 24 hrs by Western blotting analysis relative to DMSO; format: cell-based
[25] = molecular target: T2, Cereblon/Casein kinase I alpha (Homo sapiens); assay: Protac activity at CRBN/CK1alpha in human OCILY3 cells assessed as relative ratio at 10 uM incubated for 24 hrs by Western blotting analysis relative to DMSO; format: cell-based
[26] = molecular target: T3, Protein cereblon/Eukaryotic peptide chain release factor GTP-binding subunit ERF3A (Homo sapiens); assay: Protac activity at CRBN/GSPT1 in human OCILY3 cells assessed as relative ratio at 1 nM incubated for 24 hrs by Western blotting analysis relative to DMSO; format: cell-based
[27] = molecular target: T3, Protein cereblon/Eukaryotic peptide chain release factor GTP-binding subunit ERF3A (Homo sapiens); assay: Protac activity at CRBN/GSPT1 in human OCILY3 cells assessed as relative ratio at 10 nM incubated for 24 hrs by Western blotting analysis relative to DMSO; format: cell-based
[28] = molecular target: T3, Protein cereblon/Eukaryotic peptide chain release factor GTP-binding subunit ERF3A (Homo sapiens); assay: Protac activity at CRBN/GSPT1 in human OCILY3 cells assessed as relative ratio at 100 nM incubated for 24 hrs by Western blotting analysis relative to DMSO; format: cell-based
[29] = molecular target: T3, Protein cereblon/Eukaryotic peptide chain release factor GTP-binding subunit ERF3A (Homo sapiens); assay: Protac activity at CRBN/GSPT1 in human OCILY3 cells assessed as relative ratio at 1 uM incubated for 24 hrs by Western blotting analysis relative to DMSO; format: cell-based
[30] = molecular target: T3, Protein cereblon/Eukaryotic peptide chain release factor GTP-binding subunit ERF3A (Homo sapiens); assay: Protac activity at CRBN/GSPT1 in human OCILY3 cells assessed as relative ratio at 10 uM incubated for 24 hrs by Western blotting analysis relative to DMSO; format: cell-based
[31] = molecular target: T1, Protein cereblon/Zinc finger protein Helios (Homo sapiens); assay: Protac activity at CRBN/IKZF2 in human A2780 cells assessed as relative ratio at 1 nM incubated for 24 hrs by Western blotting analysis relative to DMSO; format: cell-based
[32] = molecular target: T1, Protein cereblon/Zinc finger protein Helios (Homo sapiens); assay: Protac activity at CRBN/IKZF2 in human A2780 cells assessed as relative ratio at 10 nM incubated for 24 hrs by Western blotting analysis relative to DMSO; format: cell-based
[33] = molecular target: T1, Protein cereblon/Zinc finger protein Helios (Homo sapiens); assay: Protac activity at CRBN/IKZF2 in human A2780 cells assessed as relative ratio at 100 nM incubated for 24 hrs by Western blotting analysis relative to DMSO; format: cell-based
[34] = molecular target: T1, Protein cereblon/Zinc finger protein Helios (Homo sapiens); assay: Protac activity at CRBN/IKZF2 in human A2780 cells assessed as relative ratio at 1 uM incubated for 24 hrs by Western blotting analysis relative to DMSO; format: cell-based
[35] = molecular target: T1, Protein cereblon/Zinc finger protein Helios (Homo sapiens); assay: Protac activity at CRBN/IKZF2 in human A2780 cells assessed as relative ratio at 10 uM incubated for 24 hrs by Western blotting analysis relative to DMSO; format: cell-based
A2780 [36] = assay: Upregulation of Bax transcript level in human A2780 cells at 1 uM incubated for 24 hrs by RT-qPCR analysis; format: functional, cell-based
A2780 [37] = assay: Upregulation of p21 transcript level in human A2780 cells at 1 uM incubated for 24 hrs by RT-qPCR analysis; format: functional, cell-based
OCI-Ly3 [38] = assay: Upregulation of p21 transcript level in human OCILY3 cells at 1 uM incubated for 24 hrs by RT-qPCR analysis; format: functional, cell-based
OCI-Ly3 [39] = assay: Upregulation of p21 protein expression in human OCILY3 cells at […] incubated for 24 hrs by Western blot analysis; format: functional, cell-based
OCI-Ly3 [40] = assay: Upregulation of p53 protein expression in human OCILY3 cells at […] incubated for 24 hrs by Western blot analysis; format: functional, cell-based
OCI-Ly3 [41] = assay: Upregulation of Bax protein expression in human OCILY3 cells at […] incubated for 24 hrs by Western blot analysis; format: functional, cell-based
A2780 [42] = assay: Upregulation of MDM2 protein expression in human A2780 cells at […] incubated for 24 hrs by Western blot analysis; format: functional, cell-based
A2780 [43] = assay: Upregulation of p21 protein expression in human A2780 cells at […] incubated for 24 hrs by Western blot analysis; format: functional, cell-based
A2780 [44] = assay: Upregulation of p53 protein expression in human A2780 cells at […] incubated for 24 hrs by Western blot analysis; format: functional, cell-based
A2780 [45] = assay: Upregulation of Bax protein expression in human A2780 cells at […] incubated for 24 hrs by Western blot analysis; format: functional, cell-based
[46] = molecular target: T3, Protein cereblon/Eukaryotic peptide chain release factor GTP-binding subunit ERF3A (Homo sapiens); assay: Protac activity at CRBN/GSPT1 in human NCI-H1048 cells at 10 to 100 nM incubated for 24 hrs by Western blotting analysis; format: cell-based; settings: dose 10-100 nM

T1 sequence (Q96SW2 whole entry, looked up): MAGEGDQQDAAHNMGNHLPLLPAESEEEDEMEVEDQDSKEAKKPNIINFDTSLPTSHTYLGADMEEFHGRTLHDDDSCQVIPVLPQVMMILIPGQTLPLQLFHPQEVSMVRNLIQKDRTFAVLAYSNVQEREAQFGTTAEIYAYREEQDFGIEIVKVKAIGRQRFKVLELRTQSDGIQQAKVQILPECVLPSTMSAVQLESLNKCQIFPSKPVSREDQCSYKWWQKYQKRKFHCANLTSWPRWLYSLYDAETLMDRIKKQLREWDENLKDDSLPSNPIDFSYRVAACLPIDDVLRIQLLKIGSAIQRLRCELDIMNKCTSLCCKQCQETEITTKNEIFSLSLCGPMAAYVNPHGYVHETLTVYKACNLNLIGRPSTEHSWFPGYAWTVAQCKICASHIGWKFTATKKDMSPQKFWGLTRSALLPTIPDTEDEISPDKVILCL
T1 sequence (Q9UKS7 whole entry, looked up): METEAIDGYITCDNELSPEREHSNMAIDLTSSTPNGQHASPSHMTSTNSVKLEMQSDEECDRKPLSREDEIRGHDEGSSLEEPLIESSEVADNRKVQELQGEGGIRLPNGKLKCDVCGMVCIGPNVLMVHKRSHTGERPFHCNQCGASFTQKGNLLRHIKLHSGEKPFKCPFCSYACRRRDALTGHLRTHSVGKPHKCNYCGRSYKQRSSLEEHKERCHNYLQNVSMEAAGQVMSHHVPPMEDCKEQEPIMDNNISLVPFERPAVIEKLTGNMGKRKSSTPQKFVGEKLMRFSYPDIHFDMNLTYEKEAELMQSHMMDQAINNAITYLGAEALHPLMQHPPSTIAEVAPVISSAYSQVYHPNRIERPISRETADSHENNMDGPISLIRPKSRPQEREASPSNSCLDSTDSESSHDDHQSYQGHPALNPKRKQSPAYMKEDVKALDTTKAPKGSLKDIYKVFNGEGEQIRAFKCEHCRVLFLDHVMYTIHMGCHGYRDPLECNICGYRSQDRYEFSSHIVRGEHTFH
T2 sequence (P48729 2-337 limits assumed): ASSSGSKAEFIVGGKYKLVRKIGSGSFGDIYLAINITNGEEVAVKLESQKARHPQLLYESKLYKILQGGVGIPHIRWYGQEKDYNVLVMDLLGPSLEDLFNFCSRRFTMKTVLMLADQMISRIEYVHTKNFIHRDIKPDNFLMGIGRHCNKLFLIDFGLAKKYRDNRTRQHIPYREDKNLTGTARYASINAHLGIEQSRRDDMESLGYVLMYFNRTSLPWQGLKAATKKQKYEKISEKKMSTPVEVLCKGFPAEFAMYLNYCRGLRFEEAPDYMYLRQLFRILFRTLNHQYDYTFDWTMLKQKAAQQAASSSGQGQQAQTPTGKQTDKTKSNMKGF
T2 sequence (Q96SW2 whole entry partner): as the sequence (Q96SW2 whole entry, looked up) above
T3 sequence (P15170 whole entry, looked up): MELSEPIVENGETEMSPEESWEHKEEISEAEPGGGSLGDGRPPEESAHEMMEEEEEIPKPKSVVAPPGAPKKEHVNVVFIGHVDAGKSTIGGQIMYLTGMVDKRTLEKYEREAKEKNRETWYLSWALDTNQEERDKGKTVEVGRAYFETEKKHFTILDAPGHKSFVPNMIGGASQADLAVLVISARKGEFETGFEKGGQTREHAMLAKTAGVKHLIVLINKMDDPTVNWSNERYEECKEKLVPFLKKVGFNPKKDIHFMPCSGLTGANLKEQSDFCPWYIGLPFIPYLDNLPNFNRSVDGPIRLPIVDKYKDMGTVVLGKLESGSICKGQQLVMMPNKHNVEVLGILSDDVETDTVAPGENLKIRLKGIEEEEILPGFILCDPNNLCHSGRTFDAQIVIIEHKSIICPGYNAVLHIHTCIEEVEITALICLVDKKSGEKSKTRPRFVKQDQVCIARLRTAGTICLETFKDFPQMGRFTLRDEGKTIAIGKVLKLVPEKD
T3 sequence (Q96SW2 whole entry, looked up): as the sequence (Q96SW2 whole entry, looked up) above

COc1cccc2c1OCC(C(=O)Nc1ccc3c(c1)CN(C1CCC(=O)NC1=O)C3=O)=C2 (stereo unspecified)
Activity (OCI-Ly3 [1]): Active
Activity (OCI-Ly3 [2]): Active
Activity [3]: 11%
Activity [4]: 82%
Activity [5]: 80%
Activity [6]: 4%
solubility [7]: 50 mM (≈ 22.4 mg/mL)
Activity [8]: Active
EC50 (A2780 [9]): 27 nM
EC50 (OCI-Ly3 [10]): 14 nM
Ratio [11]: 0.5
Ratio [12]: 0.22
Ratio [13]: 0.18
Ratio [14]: 0.17
Ratio [15]: 0.17
Ratio [16]: 0.96
Ratio [17]: 0.9
Ratio [18]: 0.9
Ratio [19]: 1
Ratio [20]: 1
Ratio [21]: 0.63
Ratio [22]: 0.28
Ratio [23]: 0.25
Ratio [24]: 0.26
Ratio [25]: 0.27
Ratio [26]: 0.83
Ratio [27]: 0.67
Ratio [28]: 0.65
Ratio [29]: 0.73
Ratio [30]: 0.8
Ratio [31]: 1
Ratio [32]: 0.77
Ratio [33]: 0.24
Ratio [34]: 0.08
Ratio [35]: 0.06
Activity (A2780 [36]): Active
Activity (A2780 [37]): Active
Activity (OCI-Ly3 [38]): Active
Activity (OCI-Ly3 [39]): Active
Activity (OCI-Ly3 [40]): Active
Activity (OCI-Ly3 [41]): Active
Activity (A2780 [42]): Active
Activity (A2780 [43]): Active
Activity (A2780 [44]): Active
Activity (A2780 [45]): Active
Activity [46]: inactive
